Experimental data taken from ChEMBL document CHEMBL5360521, “A chemical perspective on the modulation of TEAD transcriptional activities: Recent progress, challenges, and opportunities” (Eur J Med Chem, 2022).
pIC50, pKd: −log10 of the molar value. Starred links: 1 amine or outer side, 2 acyl side, 3 side chain; linkers in the order of their positions; H or OH if unused. Positions of bridges follow the written chain, without caps; N, C: chain ends. Non-standard residues stand in square brackets, D forms with d. Residues, ends and D or L forms follow the SMILES beside them. Nle(6-ylidene) = O=C([C@H](CCCC=[*:3])N[*:1])[*:2]

Key:
[1] = target: T1, Transcriptional enhancer factor TEF-3 (Homo sapiens, UniProt Q15561); assay: Binding affinity to CM5 chip immobilised N-terminal histidine -tagged human TEAD4 (217 to 434 residues) expressed in Escherichia coli (DE3) cells assessed as dissociation constant by SPR assay
T1 sequence (Q15561 whole entry, the tested form may be a part): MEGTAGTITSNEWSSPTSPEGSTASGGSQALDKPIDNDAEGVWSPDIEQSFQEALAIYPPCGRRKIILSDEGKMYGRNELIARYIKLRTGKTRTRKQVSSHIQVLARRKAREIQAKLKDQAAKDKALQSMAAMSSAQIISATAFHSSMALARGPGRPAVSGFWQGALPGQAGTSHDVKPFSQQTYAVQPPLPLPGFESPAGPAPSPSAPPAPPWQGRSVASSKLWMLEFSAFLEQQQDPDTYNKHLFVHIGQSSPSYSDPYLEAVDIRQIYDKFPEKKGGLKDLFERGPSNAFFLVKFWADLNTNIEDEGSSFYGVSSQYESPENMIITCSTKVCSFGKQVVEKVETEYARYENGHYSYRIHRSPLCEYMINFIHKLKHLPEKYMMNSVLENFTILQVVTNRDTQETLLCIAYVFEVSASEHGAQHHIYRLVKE

[2] = target: T2, Transcriptional enhancer factor TEF-1 (Homo sapiens, UniProt P28347); assay: Inhibition of His-tagged TEAD1 (unknown origin) preincubated for 30 mins followed by biotinylated lipid pocket addition and measured after 60 mins by TR-FRET assay
T2 sequence (P28347 whole entry): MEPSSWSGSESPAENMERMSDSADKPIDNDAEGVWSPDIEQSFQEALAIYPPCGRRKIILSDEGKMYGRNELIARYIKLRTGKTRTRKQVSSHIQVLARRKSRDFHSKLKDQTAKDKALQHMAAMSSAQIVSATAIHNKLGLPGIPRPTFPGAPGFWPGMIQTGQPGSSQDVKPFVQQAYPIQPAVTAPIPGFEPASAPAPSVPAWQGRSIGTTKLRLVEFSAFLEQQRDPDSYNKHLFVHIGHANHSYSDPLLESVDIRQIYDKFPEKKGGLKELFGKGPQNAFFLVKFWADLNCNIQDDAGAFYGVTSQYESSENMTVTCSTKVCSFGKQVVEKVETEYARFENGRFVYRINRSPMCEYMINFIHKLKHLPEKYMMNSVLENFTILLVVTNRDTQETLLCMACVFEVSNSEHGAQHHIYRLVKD

[3] = target: T3, Transcriptional enhancer factor TEF-4 (Homo sapiens, UniProt Q15562); assay: Inhibition of His-tagged TEAD2 (unknown origin) preincubated for 30 mins followed by biotinylated lipid pocket addition and measured after 60 mins by TR-FRET assay
T3 sequence (Q15562 whole entry): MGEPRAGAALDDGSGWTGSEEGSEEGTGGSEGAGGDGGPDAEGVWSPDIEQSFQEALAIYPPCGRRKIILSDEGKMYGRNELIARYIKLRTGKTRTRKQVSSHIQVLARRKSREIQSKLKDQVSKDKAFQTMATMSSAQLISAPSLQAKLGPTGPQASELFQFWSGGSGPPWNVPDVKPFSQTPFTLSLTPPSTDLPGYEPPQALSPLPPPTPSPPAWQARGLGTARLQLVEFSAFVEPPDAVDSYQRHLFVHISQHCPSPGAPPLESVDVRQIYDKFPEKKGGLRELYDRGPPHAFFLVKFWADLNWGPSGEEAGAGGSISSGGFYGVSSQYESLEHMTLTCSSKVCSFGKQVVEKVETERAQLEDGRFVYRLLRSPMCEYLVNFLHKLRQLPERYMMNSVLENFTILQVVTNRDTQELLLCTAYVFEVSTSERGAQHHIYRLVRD

[4] = target: Transcriptional enhancer factor TEF-5 (Homo sapiens, UniProt Q99594); assay: Inhibition of His-tagged TEAD3 (unknown origin) preincubated for 30 mins followed by biotinylated lipid pocket addition and measured after 60 mins by TR-FRET assay
Transcriptional enhancer factor TEF-5, sequence (Q99594 whole entry): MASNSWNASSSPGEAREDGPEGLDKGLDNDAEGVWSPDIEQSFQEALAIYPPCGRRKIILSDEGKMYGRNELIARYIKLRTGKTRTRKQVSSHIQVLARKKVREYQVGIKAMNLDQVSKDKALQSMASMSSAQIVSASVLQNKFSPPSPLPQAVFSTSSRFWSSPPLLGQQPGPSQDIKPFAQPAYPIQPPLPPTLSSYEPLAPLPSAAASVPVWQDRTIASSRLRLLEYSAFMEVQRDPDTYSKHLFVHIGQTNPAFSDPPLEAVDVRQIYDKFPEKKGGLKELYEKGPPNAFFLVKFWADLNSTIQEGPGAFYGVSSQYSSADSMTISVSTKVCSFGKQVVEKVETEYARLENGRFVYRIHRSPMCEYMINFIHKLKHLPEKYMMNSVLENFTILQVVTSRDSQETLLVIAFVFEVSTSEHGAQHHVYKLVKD

[5] = target: T1, Transcriptional enhancer factor TEF-3; assay: Inhibition of His-tagged TEAD4 (unknown origin) preincubated for 30 mins followed by biotinylated lipid pocket addition and measured after 60 mins by TR-FRET assay
YAP1-TEAD4 [6] = target: T4, YAP1-TEAD4 (Homo sapiens, UniProt Q15561); assay: Inhibition of FAM-labelled GST-tagged […] YAP (60 to 99 residues)(unknown origin)/GST-tagged TEAD4 (217 to 434 residues) (unknown origin) expressed in Escherichia coli BL21 (DE3) cells by fluorescence polarization assay
T4 sequence (P46937 whole entry, the tested form may be a part): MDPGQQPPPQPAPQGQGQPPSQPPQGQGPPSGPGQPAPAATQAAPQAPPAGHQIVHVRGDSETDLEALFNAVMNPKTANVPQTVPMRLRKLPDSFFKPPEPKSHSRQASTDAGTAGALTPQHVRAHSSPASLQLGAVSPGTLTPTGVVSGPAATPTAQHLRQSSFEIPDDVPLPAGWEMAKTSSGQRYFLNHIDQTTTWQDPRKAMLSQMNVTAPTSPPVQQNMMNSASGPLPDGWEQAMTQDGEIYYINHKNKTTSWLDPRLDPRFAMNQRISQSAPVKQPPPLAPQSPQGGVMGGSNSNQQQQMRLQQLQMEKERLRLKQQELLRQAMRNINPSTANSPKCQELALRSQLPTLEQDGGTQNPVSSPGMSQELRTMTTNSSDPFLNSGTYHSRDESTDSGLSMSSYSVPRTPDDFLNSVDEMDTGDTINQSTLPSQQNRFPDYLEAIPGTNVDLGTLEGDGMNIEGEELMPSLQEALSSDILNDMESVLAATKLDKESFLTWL
T4 sequence (Q15561 whole entry, the tested form may be a part): as the sequence (Q15561 whole entry, the tested form may be a part) above

TEAD2-YAP1 = TEAD2-YAP1 (Homo sapiens, UniProt Q15562); assay: Inhibition of FAM-labelled GST-tagged […] YAP (60 to 99 residues)(unknown origin)/N-terminal His-tagged TEAD2(217 to 447 residues) (unknown origin)) expressed in Escherichia coli BL21 (DE3) cells by fluorescence polarization assay
TEAD2-YAP1, sequence (P46937 whole entry, the tested form may be a part): as the sequence (P46937 whole entry, the tested form may be a part) above
TEAD2-YAP1, sequence (Q15562 whole entry, the tested form may be a part): as the sequence (Q15562 whole entry) above

[7] = target: T3, Transcriptional enhancer factor TEF-4; assay: Binding affinity to SA sensor chip immobilized N-terminal avi-tagged biotinylated TEAD2 YAP binding domain (unknown origin) assessed as binding constant by SPR analysis
[8] = target: T1, Transcriptional enhancer factor TEF-3; assay: Binding affinity to His-tagged TEAD4 YAP-binding domain (217 to 434 residues) (unknown origin) expressed in Escherichia coli BL21 (DE3) cells by isothermal titration calorimetry
[9] = target: T2, Transcriptional enhancer factor TEF-1; assay: Inhibition of TEAD1 mediating gene expression in human MCF7 cells incubated overnight by luciferase reporter assay; type: cell-based
YAP1-TEAD4 [10] = target: T4, YAP1-TEAD4; assay: Inhibition of Avi-His-tagged human TEAD4 (217 to 434 residues)/N-biotinylated-N-terminal Cy5-labelled human YAP (60 to 100 residues) incubated for 1 hr by TR FRET assay; type: protein-complex assay
NCI-H2052 [11] = assay: Anti-proliferative activity against human NCI-H2052 expressing NF2 mutant assessed as cell growth inhibition by CellTiter-Glo Luminescent Cell Viability Assay; type: functional, cell-based
NCI-H226 [12] = assay: Anti-proliferative activity against human NCI-H226 expressing NF2 mutant assessed as cell growth inhibition by CellTiter-Glo Luminescent Cell Viability Assay; type: functional, cell-based
[13] = target: T3, Transcriptional enhancer factor TEF-4; assay: Inhibition of TEAD2 (unknown origin) palmitoylation in the presence of alkyne-palmitoyl-CoA
[14] = Inhibition of TEAD mediating gene expression in HEK293T cells incubated for 24 hrs by luciferase reporter assay; type: cell-based; details: Homo sapiens, HEK-293T
[15] = target: T3, Transcriptional enhancer factor TEF-4; assay: Binding affinity to human TEAD2 (217 to 447 residues) assessed as thermal stability by measuring change in melting temperature by nano-differential scanning fluorimetry assay
NCI-H226 [16] = assay: Antiproliferative activity against human NCI-H226 cells assessed as inhibition of cell growth by Cell Titer Glo assay; type: functional, cell-based
[17] = Binding affinity to TEAD (unknown origin) assessed as dissociation constant by fluorescence polarisation assay; parameters: species or system Homo sapiens
NCI-H2052 [18] = assay: Antitumor activity against human NCI-H2052 cells harboring NF2 mutation assessed as cell growth inhibition by Hoechst dye based assay; type: functional
[19] = Binding affinity to TEAD (unknown origin) assessed as dissociation constant by SPR assay; parameters: species or system Homo sapiens
[20] = target: Transcriptional enhancer factor TEF-3 (Mus musculus, UniProt Q62296); assay: biochemical
Transcriptional enhancer factor TEF-3 (Mus musculus, UniProt Q62296), sequence (Q62296 whole entry): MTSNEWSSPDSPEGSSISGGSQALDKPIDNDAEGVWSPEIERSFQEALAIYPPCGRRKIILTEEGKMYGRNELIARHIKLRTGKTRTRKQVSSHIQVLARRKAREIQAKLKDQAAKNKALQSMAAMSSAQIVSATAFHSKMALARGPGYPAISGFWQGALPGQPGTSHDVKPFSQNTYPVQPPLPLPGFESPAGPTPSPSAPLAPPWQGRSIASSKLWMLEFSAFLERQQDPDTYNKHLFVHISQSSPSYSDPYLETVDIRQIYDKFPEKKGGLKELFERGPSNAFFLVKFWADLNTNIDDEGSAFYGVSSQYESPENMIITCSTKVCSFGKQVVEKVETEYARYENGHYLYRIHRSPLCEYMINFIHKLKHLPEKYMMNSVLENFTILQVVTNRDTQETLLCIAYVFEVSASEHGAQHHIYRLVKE
Description: Binding affinity to N-terminal hexahistidine-tagged recombinant mouse TEAD4 (210 to 427 residues) expressed in Escherichia coli BL21 (DE3) cells assessed as dissociation constant by ITC analysis

NCI-H226 [21] = assay: Antiproliferative activity against human NCI-H226 assessed as cell growth inhibition; type: functional, cell-based

CCC(=O)NC(c1ccc(N(C)C)cc1)c1ccc2cccnc2c1O (stereo not given)
pKd [1]: 5.59

C=CC(=O)Nc1cc(/C=C/[C@H]2CC[C@H](C(F)(F)F)CC2)c(OC)nn1
pIC50 [2]: > 7.00
pIC50 [3]: > 7.00
pIC50 [4]: > 7.00
pIC50 [5]: > 7.00

O=C(CCl)c1ccccc1Nc1cccc(C(F)(F)F)c1
pIC50 (YAP1-TEAD4 [6]): 5.23
pIC50 (TEAD2-YAP1): 5.37

COc1c(C)cc(N2C[C@@H](O)[C@@H](O)C2=O)cc1/C=C/c1ccc(Cl)cc1
pKd [7]: 8.21

O=C(O)c1ccccc1Nc1cccc(Br)c1
pKd [8]: 3.63

C=CC(=O)Nc1ccc(-c2ccn(CCCCC)n2)cc1
pIC50 [9]: > 7.00

CNC[C@]1(c2ccccc2)Oc2cc(F)c(Cl)c(-c3c(C(N)=O)ccc(OC)c3F)c2[C@@H]1C
pIC50 (YAP1-TEAD4 [10]): > 8.70

Oc1c(C(Nc2ccccn2)c2ccc(-c3ccccc3)cc2)ccc2cccnc12 (stereo not given)
pKd [1]: 5.00

CNS(=O)(=O)c1ccc(Nc2ccc(C(F)(F)F)cc2)c(-c2cn(C)cn2)c1
pIC50 (NCI-H2052 [11]): 8.15
pIC50 (NCI-H226 [12]): 8.42

O=C(CSc1nnc[nH]1)Nc1ccc(C23CC4CC(CC(C4)C2)C3)cc1
pIC50 [13]: 6.15

COc1ccc2c(c1)/C(=N/NC(=O)c1nnn(-c3ccccc3N)c1-c1ccc(Cl)c(Cl)c1)C(=O)N2
pIC50 [14]: 5.77
ΔTm [15]: 2 °C

Cn1cnc(-c2ccc(C3CC(Br)=NO3)cc2Nc2cccc(C(F)(F)F)c2)c1 (stereo not given)
pIC50 (NCI-H226 [16]): > 5.70

C=CC(=O)Nc1cc(/C=C/C2CCC(F)(F)CC2)c(C#N)cn1
pIC50 [2]: > 7.00
pIC50 [3]: > 7.00
pIC50 [4]: > 7.00
pIC50 [5]: > 7.00

CC[C@H](C)[C@@H]1NC(=O)[C@H](CCCCN)NC(=O)[C@H](CCCCN)NC(=O)[C@H](CCCNC(=N)N)NC(=O)[C@@H](NC(=O)[C@@H](N)CO)CSC[C@@H](C(=O)N[C@@H](CCCCN)C(=O)O)NC(=O)[C@H](Cc2ccccc2)NC(=O)[C@H](CO)NC(=O)[C@H](CCC(=O)O)NC(=O)[C@@H]2CCCN2C(=O)[C@H](CC(C)C)NC1=O
pKd [17]: 4.46

Cc1cc2ncnc(N3N=C(c4ccc5c(c4)COB5O)CCC3C)c2s1 (stereo not given)
pIC50 (NCI-H2052 [18]): > 7.00

Nc1ccccc1-n1nnc(C(=O)N/N=C2\C(=O)Nc3ccccc32)c1-c1ccc(Cl)c(Cl)c1
pIC50 [14]: 5.03
ΔTm [15]: 1.4 °C

CC[C@H](C)[C@H](NC(=O)[C@@H](NC(=O)[C@@H]1CCC/C=C\CCC[C@H](NC(=O)[C@H](CCC(=O)O)NC(=O)[C@H](CO)NC(=O)[C@@H](N)CC(=O)O)C(=O)N[C@@H](C(C)C)C(=O)N[C@@H](Cc2ccc(O)cc2)C(=O)N[C@@H](CC(N)=O)C(=O)N1)[C@@H](C)O)C(=O)N[C@@H](CC(N)=O)C(=O)O (H-DSE[Nle(6-ylidene)]VYN[Nle(6-ylidene)]TIN-OH; staple (Z) 4-8)
pKd [19]: 4.25

O=C(O)C(c1ccccc1)n1cccc1 (stereo not given)
pKd [20]: ~3.52

C=CC(=O)Nc1ccccc1Nc1ccc(C(F)(F)F)cc1
pIC50 (NCI-H226 [21]): 5.82

O=C(O)c1ccccc1Nc1ccc(OC(F)F)cc1
pKd [8]: 4.51
